Data published in PubChem BioAssay (NCI).
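48-hour exposure; five concentrations; linearly interpolated endpoints. GI50: concentration for 50% inhibition of growth. TGI: concentration producing complete growth inhibition.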

How the values were obtained:
Assay in all cases: NCI tumour cell line growth inhibition, 48 h
HCT-116 colon = test system: HCT-116 colon
NCI-H23 lung = test system: NCI-H23 lung
LOX IMVI melanoma = test system: LOX IMVI melanoma
OVCAR-8 ovarian = test system: OVCAR-8 ovarian
SF-295 CNS = test system: SF-295 CNS
A498 renal = test system: A498 renal
HCC-2998 colon = test system: HCC-2998 colon
UO-31 renal = test system: UO-31 renal
CCRF-CEM leukemia = test system: CCRF-CEM leukemia
UACC-62 melanoma = test system: UACC-62 melanoma

Structure (SMILES)	TGI (HCT-116 colon)	TGI (NCI-H23 lung)	TGI (LOX IMVI melanoma)	TGI (OVCAR-8 ovarian)	TGI (SF-295 CNS)	TGI (A498 renal)	TGI (HCC-2998 colon)	TGI (UO-31 renal)	TGI (CCRF-CEM leukemia)	TGI (UACC-62 melanoma)	GI50 (HCT-116 colon)	GI50 (NCI-H23 lung)	GI50 (LOX IMVI melanoma)	GI50 (OVCAR-8 ovarian)	GI50 (SF-295 CNS)	GI50 (A498 renal)	GI50 (HCC-2998 colon)	GI50 (UO-31 renal)	GI50 (CCRF-CEM leukemia)	GI50 (UACC-62 melanoma)
CC12CC(Sc3ccccc3N1)c1ccccc1O2 (stereo not given)	29.2 µM	29.8 µM	27 µM	33.3 µM	29.8 µM	33 µM	31 µM	27.4 µM	36.5 µM	30.7 µM	–	–	–	–	–	–	–	–	–	–
Clc1ccc(N2CCC(N3CCCC3)CC2)cc1-c1nc2ccccc2[nH]1	27.5 µM	> 71.3 µM	35.5 µM	60.6 µM	36.2 µM	27.8 µM	37.4 µM	34 µM	79.4 µM	32.1 µM	13.1 µM	25.7 µM	18.1 µM	22.5 µM	17.4 µM	12.8 µM	18.6 µM	16.7 µM	25.9 µM	16.2 µM
Nc1cc2nc3ccccc3oc-2cc1=O	> 68 µM	3.56 µM	2.23 µM	> 100 µM	3.79 µM	11.1 µM	17.4 µM	10.4 µM	> 64.9 µM	3.27 µM	6.1 µM	0.811 µM	0.606 µM	19.7 µM	1.44 µM	5.44 µM	4.34 µM	1.77 µM	13.4 µM	1.67 µM
CCOC(=O)c1nc2cc(C(F)(F)F)ccc2[n+]([O-])c1C	> 100 µM	> 100 µM	> 100 µM	> 100 µM	> 100 µM	> 100 µM	> 100 µM	> 100 µM	0.533 µM	> 100 µM	> 100 µM	> 100 µM	> 100 µM	> 100 µM	> 100 µM	> 100 µM	> 100 µM	> 100 µM	0.159 µM	> 100 µM
CNC(=O)c1cc2c(Oc3ccc(NC(=S)NC(=O)Cc4ccccc4)cc3F)ccnc2cc1OC	> 100 µM	> 100 µM	> 100 µM	> 100 µM	> 100 µM	4.35 µM	> 100 µM	> 100 µM	> 100 µM	> 100 µM	59.5 µM	3.13 µM	4.13 µM	> 100 µM	0.196 µM	1.1 µM	> 100 µM	2.56 µM	> 29.9 µM	3.43 µM
O=Nc1c(O)c2ccccc2c2ccccc12	1.33 µM	3.86 µM	1.06 µM	3.88 µM	3.5 µM	3.07 µM	3.7 µM	3.3 µM	> 100 µM	2.37 µM	0.371 µM	0.464 µM	0.294 µM	0.653 µM	1.64 µM	1.6 µM	1.91 µM	1.35 µM	1.25 µM	0.99 µM
CCOP(=O)(CC(=O)C1=C(O)C(CCCCNC(=O)OC(C)(C)C)N(Cc2ccccc2)C1=O)OCC (stereo not given)	> 100 µM	> 100 µM	> 100 µM	> 100 µM	> 100 µM	> 100 µM	> 100 µM	> 100 µM	> 100 µM	> 100 µM	–	–	–	–	–	–	–	–	–	–
NC(CO)C(=O)NCC(=O)O (stereo not given)	> 100 µM	> 100 µM	> 100 µM	> 100 µM	> 100 µM	> 100 µM	> 100 µM	> 100 µM	> 100 µM	> 100 µM	–	–	–	–	–	–	–	–	–	–
CCN(Cc1cccc(F)c1F)c1ccc(CO)c(Cl)c1	11.2 µM	51.6 µM	30.7 µM	48.3 µM	25 µM	0.102 µM	24.6 µM	32.1 µM	69.1 µM	0.519 µM	0.067 µM	13.6 µM	15.8 µM	14.2 µM	0.284 µM	0.0217 µM	5.09 µM	2.35 µM	20.1 µM	0.0842 µM
O=C(COc1ccc(-c2nc3cc(Cl)c(Cl)cc3[nH]2)cc1)N=Nc1c(O)[nH]c2ccccc12	> 100 µM	15.1 µM	2.64 µM	> 100 µM	9.01 µM	18.6 µM	3.75 µM	> 100 µM	> 100 µM	> 100 µM	9.12 µM	3.03 µM	1.02 µM	1.55 µM	2.63 µM	3.62 µM	1.35 µM	> 100 µM	0.749 µM	2.83 µM
Oc1ccccc1C=Nc1ccccc1N=Cc1ccccc1O.[Cu+2]	16.9 µM	14 µM	13.3 µM	8.44 µM	19.9 µM	20.8 µM	20.9 µM	15.6 µM	> 100 µM	14.2 µM	4.45 µM	3.16 µM	2.85 µM	2.48 µM	5.91 µM	7.66 µM	7.95 µM	3 µM	4.16 µM	3.13 µM
COc1ccc(-c2nc(-c3nc4ccc(C(F)(F)F)cc4[nH]3)c3ccccn23)cc1	> 100 µM	> 100 µM	> 100 µM	> 100 µM	> 100 µM	> 100 µM	> 100 µM	> 100 µM	> 100 µM	> 100 µM	26.1 µM	> 100 µM	31.3 µM	22.7 µM	> 100 µM	> 100 µM	51.8 µM	> 100 µM	7.4 µM	51.1 µM
CC1(C)CC(=O)c2c(ccc(C(=O)C[C@@H](N)CO)c2N)O1	> 100 µM	> 100 µM	1.11 µM	> 69.6 µM	> 54.9 µM	27.7 µM	4.63 µM	> 100 µM	> 60.2 µM	3.61 µM	0.347 µM	1.17 µM	0.0986 µM	1.08 µM	1.29 µM	0.921 µM	0.371 µM	1.1 µM	0.556 µM	0.333 µM
